Reference: ChEMBL document CHEMBL1201862, “PubChem BioAssay data set” (2004)
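All cell lines were grown in 96-well plates and treated with compound for 48 hours. GI50 = concentration required for 50% inhibition of growth.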 Activity calls are given as the source filed them. Rule as the data show it: active = GI50 up to about 1.1 µM and inactive = higher.

Key:
Experiment in all cases: DTP human tumour cell line panel, 48 h
A549 = system: A549
EKVX = system: EKVX
HCT-116 = system: HCT-116
HL-60 = system: HL-60
IGROV-1 = system: IGROV-1
LOX IMVI = system: LOX IMVI
Malme-3M = system: Malme-3M
NCI-H522 = system: NCI-H522
OVCAR-4 = system: OVCAR-4
OVCAR-5 = system: OVCAR-5
SF-295 = system: SF-295
SF-539 = system: SF-539
SNB-75 = system: SNB-75
SR = system: SR
UO-31 = system: UO-31
MDA-MB-231 = system: MDA-MB-231
NCI/ADR-RES = system: NCI/ADR-RES
T47D = system: T47D
Hs-578T = system: Hs-578T
BT-549 = system: BT-549

Structure (SMILES) | GI50 (A549) | GI50 (EKVX) | GI50 (HCT-116) | GI50 (HL-60) | GI50 (IGROV-1) | GI50 (LOX IMVI) | GI50 (Malme-3M) | GI50 (NCI-H522) | GI50 (OVCAR-4) | GI50 (OVCAR-5) | GI50 (SF-295) | GI50 (SF-539) | GI50 (SNB-75) | GI50 (SR) | GI50 (UO-31) | GI50 (MDA-MB-231) | GI50 (NCI/ADR-RES) | GI50 (T47D) | GI50 (Hs-578T) | GI50 (BT-549)
COC(=O)c1c(C(=O)OC)c2cc(C(=O)c3ccccc3)ccn2c1Cl | 41.5 µM (inactive) | 31 µM (inactive) | 39.6 µM (inactive) | 22.8 µM (inactive) | 53.1 µM (inactive) | 36.1 µM (inactive) | 52.7 µM (inactive) | 19.5 µM (inactive) | 31.2 µM (inactive) | 48.4 µM (inactive) | 26.4 µM (inactive) | 48.6 µM (inactive) | 12.9 µM (inactive) | 15.4 µM (inactive) | 28.2 µM (inactive) | – | – | – | – | –
COC(=O)CNC(=O)CCSc1nnc(COc2ccc(Cl)cc2)n1-c1ccccc1 | 68.2 µM (inactive) | 59.6 µM (inactive) | 37.5 µM (inactive) | 30 µM (inactive) | 26.2 µM (inactive) | 29.1 µM (inactive) | 25.8 µM (inactive) | 15.4 µM (inactive) | 61.1 µM (inactive) | 47.8 µM (inactive) | 58.5 µM (inactive) | 91.8 µM (inactive) | 20.4 µM (inactive) | > 10 µM (inactive) | 34.8 µM (inactive) | 21 µM (inactive) | 42.6 µM (inactive) | 25.9 µM (inactive) | – | –
CSC1=N/C(=C\c2ccc(Cl)cc2)C(=O)N1CN1CCOCC1 | > 100 µM (inactive) | 53.5 µM (inactive) | 27.5 µM (inactive) | – | 27.4 µM (inactive) | 26.4 µM (inactive) | 52.2 µM (inactive) | 30.7 µM (inactive) | 21 µM (inactive) | 87.9 µM (inactive) | > 100 µM (inactive) | – | 55.2 µM (inactive) | 0.0791 µM (active) | 23 µM (inactive) | 43 µM (inactive) | 40.6 µM (inactive) | – | 33 µM (inactive) | –
O=[N+]([O-])c1ccccc1S(=O)(=O)c1cc(Cl)cc2c1NCCC2 | 65.8 µM (inactive) | > 100 µM (inactive) | 41.7 µM (inactive) | 31.3 µM (inactive) | 48.3 µM (inactive) | 43.9 µM (inactive) | 25.8 µM (inactive) | – | > 100 µM (inactive) | > 100 µM (inactive) | 52.2 µM (inactive) | > 100 µM (inactive) | 43.4 µM (inactive) | 42.8 µM (inactive) | 50.2 µM (inactive) | 34.1 µM (inactive) | > 100 µM (inactive) | – | 40.1 µM (inactive) | 26.8 µM (inactive)
CC(C)(/C=N/O)/[N+]([O-])=C/c1ccccc1 | > 100 µM (inactive) | > 100 µM (inactive) | > 100 µM (inactive) | – | > 100 µM (inactive) | > 100 µM (inactive) | > 100 µM (inactive) | – | > 100 µM (inactive) | > 100 µM (inactive) | > 100 µM (inactive) | > 100 µM (inactive) | > 100 µM (inactive) | – | > 100 µM (inactive) | > 100 µM (inactive) | > 100 µM (inactive) | > 100 µM (inactive) | > 100 µM (inactive) | –
COC(=O)CC(CNC(=O)OCc1ccccc1)OCc1ccc(OC)cc1 (centres undefined) | > 100 µM (inactive) | > 100 µM (inactive) | > 100 µM (inactive) | > 100 µM (inactive) | > 100 µM (inactive) | > 100 µM (inactive) | > 100 µM (inactive) | > 100 µM (inactive) | 88.7 µM (inactive) | > 100 µM (inactive) | > 100 µM (inactive) | > 100 µM (inactive) | > 100 µM (inactive) | > 100 µM (inactive) | 50.6 µM (inactive) | > 100 µM (inactive) | > 100 µM (inactive) | – | – | 34 µM (inactive)
O=C(/C=C(\O)C(=O)O)/C=C(\O)c1ccc(Cl)cc1 | > 100 µM (inactive) | > 100 µM (inactive) | > 100 µM (inactive) | > 100 µM (inactive) | > 100 µM (inactive) | > 100 µM (inactive) | > 100 µM (inactive) | > 100 µM (inactive) | > 100 µM (inactive) | > 100 µM (inactive) | > 100 µM (inactive) | > 100 µM (inactive) | > 100 µM (inactive) | > 100 µM (inactive) | > 100 µM (inactive) | – | – | – | – | –
COc1ccc(N2CC(=O)N(C(=O)COc3ccc(OCC(=O)N4C(=O)CN(c5ccc(OC)cc5)C4=S)cc3)C2=S)cc1 | 46.9 µM (inactive) | 81.1 µM (inactive) | 24 µM (inactive) | – | 15.4 µM (inactive) | – | 4.47 µM (inactive) | 32.6 µM (inactive) | > 100 µM (inactive) | > 100 µM (inactive) | > 100 µM (inactive) | – | > 100 µM (inactive) | – | > 100 µM (inactive) | > 100 µM (inactive) | > 100 µM (inactive) | – | – | > 100 µM (inactive)
O=C1c2c(O)cccc2C(C(=O)CCCCCC(=O)C2c3cccc(O)c3C(=O)c3c(O)cccc32)c2cccc(O)c21 | 1.03 µM (active) | 0.957 µM (active) | 0.957 µM (active) | 1.15 µM (inactive) | 1.14 µM (inactive) | 0.906 µM (active) | 2.39 µM (inactive) | 0.638 µM (active) | 1.5 µM (inactive) | 3.22 µM (inactive) | 1.14 µM (inactive) | 0.537 µM (active) | 1.03 µM (active) | 1.79 µM (inactive) | 1.15 µM (inactive) | – | – | – | – | –
N#C/C(C(=O)Nc1ccccc1)=C(/N)N1CCOCC1 | > 100 µM (inactive) | > 100 µM (inactive) | > 100 µM (inactive) | – | > 100 µM (inactive) | > 100 µM (inactive) | – | – | – | > 100 µM (inactive) | > 100 µM (inactive) | > 100 µM (inactive) | > 100 µM (inactive) | > 100 µM (inactive) | > 100 µM (inactive) | – | > 100 µM (inactive) | > 100 µM (inactive) | – | > 100 µM (inactive)
COC(=O)C(=O)C(C(=O)C=C(C)C)C(=O)C(=O)Nc1cc(C(F)(F)F)ccc1Cl (centres undefined) | > 100 µM (inactive) | > 100 µM (inactive) | > 100 µM (inactive) | > 100 µM (inactive) | > 100 µM (inactive) | 46.9 µM (inactive) | > 100 µM (inactive) | 57.5 µM (inactive) | > 100 µM (inactive) | > 100 µM (inactive) | > 100 µM (inactive) | > 100 µM (inactive) | > 100 µM (inactive) | 17.7 µM (inactive) | > 100 µM (inactive) | – | – | – | – | –
CC(=O)c1cccc(NC(=O)C(=O)Nn2c(N)nnc2N)c1 | > 100 µM (inactive) | > 100 µM (inactive) | > 100 µM (inactive) | > 100 µM (inactive) | > 100 µM (inactive) | > 100 µM (inactive) | > 100 µM (inactive) | > 100 µM (inactive) | > 100 µM (inactive) | > 100 µM (inactive) | > 100 µM (inactive) | > 100 µM (inactive) | > 100 µM (inactive) | > 100 µM (inactive) | > 100 µM (inactive) | – | – | – | – | –
O=S(=O)(O)c1ccc(/N=N/c2ccc(/N=N/c3c(O)ccc4ccccc34)c(S(=O)(=O)O)c2)cc1 | > 100 µM (inactive) | > 100 µM (inactive) | > 100 µM (inactive) | > 100 µM (inactive) | > 100 µM (inactive) | – | > 100 µM (inactive) | > 100 µM (inactive) | – | > 100 µM (inactive) | > 100 µM (inactive) | > 100 µM (inactive) | 62.1 µM (inactive) | > 100 µM (inactive) | > 100 µM (inactive) | > 100 µM (inactive) | > 100 µM (inactive) | – | > 100 µM (inactive) | > 100 µM (inactive)
COc1ccc(-c2cc(-c3ccc(Nc4ccnc5cc(C(F)(F)F)ccc45)cc3)nc(N)c2C#N)cc1 | > 100 µM (inactive) | > 100 µM (inactive) | 23.2 µM (inactive) | > 100 µM (inactive) | – | 33.3 µM (inactive) | > 100 µM (inactive) | – | 27.7 µM (inactive) | > 100 µM (inactive) | 32 µM (inactive) | 34.6 µM (inactive) | 31 µM (inactive) | 26.7 µM (inactive) | > 100 µM (inactive) | 99.8 µM (inactive) | > 100 µM (inactive) | 46.1 µM (inactive) | – | 46.2 µM (inactive)
O=C1/C(=C/c2ccccc2)CCCc2ccccc21 | 22.9 µM (inactive) | 19.5 µM (inactive) | 16.8 µM (inactive) | 15.2 µM (inactive) | 19.6 µM (inactive) | 18.4 µM (inactive) | 20.8 µM (inactive) | 21.1 µM (inactive) | 17.3 µM (inactive) | 19.1 µM (inactive) | 19 µM (inactive) | 17.9 µM (inactive) | 35.3 µM (inactive) | 14.4 µM (inactive) | 17.6 µM (inactive) | 20.1 µM (inactive) | 20 µM (inactive) | – | 21.9 µM (inactive) | 20 µM (inactive)
CC[C@H](CC[C@@H](C)[C@H]1CC[C@H]2[C@@H]3CC=C4C[C@@H](O)CC[C@]4(C)[C@H]3CC[C@]12C)C(C)C [BETA-SITOSTEROL] | > 100 µM (inactive) | > 100 µM (inactive) | > 100 µM (inactive) | > 10 µM (inactive) | > 100 µM (inactive) | > 100 µM (inactive) | > 100 µM (inactive) | > 100 µM (inactive) | > 100 µM (inactive) | > 100 µM (inactive) | > 100 µM (inactive) | > 100 µM (inactive) | > 100 µM (inactive) | – | > 100 µM (inactive) | > 100 µM (inactive) | > 100 µM (inactive) | – | > 100 µM (inactive) | –
